We go through 13 compounds from US20200039930A1, “PROLINE AMIDE COMPOUNDS AND THEIR AZETIDINE ANALOGUES CARRYING A SPECIFICALLY SUBSTITUTED BENZYL RADICAL” (AbbVie Deutschland GmbH & Co. KG, priority 2017, published 2020).

The nature of series [1]: Metabolic stability: unbound intrinsic clearance in liver microsomes. In kind it is in vitro ADME. The following applies: rat; liver microsomes 0.25 mg protein/mL, 0.5 μM compound, pH 7.4, 37° C.; Cl int unbound=Cl int/fu mic; compounds used as acid addition salts; read-out: Cl int, mic unb. (r) (unbound intrinsic clearance). Here is the method:
Samples of the tested compounds (0.5 μM) were preincubated together with rat liver microsomes (0.25 mg of microsomal protein/mL) in 0.05 M potassium phosphate buffer of pH 7.4 in microtiter plates at 37° C. for 5 minutes. The reaction was started by adding NADPH (1.0 mM). After 0, 5, 10, 15, 20 and 30 minutes, an aliquot was removed, the reaction was cooled and stopped by adding twice the amount of quench solution consisting of acetonitrile/methanol 1:1, and containing […] carbutamide as internal standard. The samples were frozen until analyzed. The remaining concentration of undegraded test substance was determined by liquid chromatography-tandem mass spectrometry (LC-MS/MS). The half-life (t1/2) was determined from the gradient of the ratio of the signal of (test substance/internal standard)/unit time plot, allowing the calculation of the half-life of the test substance, assuming first order kinetics, from the decrease in the concentration of the compound with time. The microsomal clearance (mClint) was calculated as follows: mClint=((ln(2)/t 1/2)/Microsomal Protein Concentration (mg/ml))*1000, leading to the unit of uL/min/mg. The scaled clearance (mClin_scaled) was calculated as mCLint_scaled=m CLint*(Microsomal Yield (mg/kg BW))/1000000*60, leading to the units L/h/kg. The Microsomal Yield is defined by the specifics of the used microsomes. Calculations were modified from refer-ences: Di, The Society for Biomolecular Screening, 2003, 453-462; Obach, D M D, 1999 vol 27. N 11, 1350-1359.
A suspension of 0.25 mg/ml microsomal protein spiked with 0.5 μM of test compound was pipetted on one side of a HTDialysis device (HTDialysis LLC,37 Ledgewood Drive, Gales Fery Conn. 06335) separated by a membrane with a MWcut off 12-14 K. 50 mM K-Phosphate buffer (pH 7.4) was added on the other side of the well. After incubation at 37° C. for 4 h while shaking at 150 rpm, aliquots of both sides were taken, quenched with MeOH/ACN 1:1 and 0.2 μM of internal standard and frozen until analy-sis by LCMSMS.
Cl int unbound=Cl int/fu mic
The compounds were used in form of their respective acid addition salts.
(Liver microsomes are a subcellular fraction often used to study metabolism.)

A further series has as its target T1, 5-HT2C receptor (Homo sapiens, UniProt P28335).
T1 construct: host or cells: U2OS
Briefly: Human 5-HT2C functional assay (beta-arrestin2 recruitment, U2OS_HTR2C_β-Arrestin cells). In kind it is cell-based. The conditions noted are these: compounds used as acid addition salts; for EC50: U2OS_HTR2C_β-Arrestin cells, 1.5 h incubation, read-out: EC50 5-HT2C (potency in functional assay); for Emax: relative efficacy vs response to 10 µM 5-HT or maximal effect of 5-HT (100%). Here is the method:
The functional activity of compounds of formula I was assayed by incubation with U2OS_HTR2C_β-Arrestin cells (DiscoverX, 93-0289C3) to induce beta-arrestin2 recruitment to the 5-HT2C receptor. The agonist-induced recruitment and proximity of the receptor and beta-arrestin2 leads to complementation and formation of active β-galactosidase. The enzyme complementation results in enzyme activity, which is measured following the termination of the agonist incubation using DiscoveRx's detection reagent, which contains a chemiluminescent substrate which produces a high intensity signal. Cells were plated and a medium-change to a 1% serum containing medium was performed 24 h later. The next day, test compounds were added and incubated for 1.5 h before addition of detection reagent.
The response produced was measured and compared with the response produced by 10 [mu]M 5-HT or the maximal effect induced by 5-HT (defined as 100%) to which it was expressed as a percentage response (relative efficacy). Dose response curves were con-structed using Graphpad Prism (Graph Software Inc.) or using in house adapted software using a 4 parameter dose response model with variable slope (fit=(Bottom+(Top−Bottom)/(1+10^((LogEC50−x)*Hill Slope))res=(y−fit)). Results are compiled in the table below.
On the technique in general: Activated receptors often draw arrestin, which recruitment assays turn into a signal.

Bounds are passed on as bounds.

T1 sequence (P28335 33-458): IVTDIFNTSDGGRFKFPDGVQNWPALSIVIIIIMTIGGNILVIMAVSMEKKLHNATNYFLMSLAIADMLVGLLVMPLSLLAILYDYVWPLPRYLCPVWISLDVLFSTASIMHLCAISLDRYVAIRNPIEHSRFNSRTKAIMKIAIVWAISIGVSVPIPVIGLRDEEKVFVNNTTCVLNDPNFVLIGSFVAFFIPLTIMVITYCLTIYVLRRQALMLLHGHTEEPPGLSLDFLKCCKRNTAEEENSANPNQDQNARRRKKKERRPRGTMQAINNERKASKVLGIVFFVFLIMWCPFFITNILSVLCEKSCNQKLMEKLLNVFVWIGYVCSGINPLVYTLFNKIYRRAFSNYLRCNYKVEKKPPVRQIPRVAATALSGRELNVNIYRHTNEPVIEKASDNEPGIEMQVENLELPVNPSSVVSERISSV
T1 sequence (P32121 whole entry partner): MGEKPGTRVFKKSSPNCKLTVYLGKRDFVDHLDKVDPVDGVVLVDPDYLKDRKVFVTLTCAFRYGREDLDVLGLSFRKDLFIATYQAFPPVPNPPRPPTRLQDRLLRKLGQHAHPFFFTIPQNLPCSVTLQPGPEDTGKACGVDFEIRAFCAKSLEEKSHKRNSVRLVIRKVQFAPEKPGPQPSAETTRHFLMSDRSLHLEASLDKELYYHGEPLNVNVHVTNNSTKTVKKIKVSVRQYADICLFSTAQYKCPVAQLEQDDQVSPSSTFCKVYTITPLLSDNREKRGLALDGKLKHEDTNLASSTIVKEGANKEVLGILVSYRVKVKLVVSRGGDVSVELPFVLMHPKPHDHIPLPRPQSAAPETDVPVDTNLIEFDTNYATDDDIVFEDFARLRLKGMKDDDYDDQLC

Broadly, the EC50 is the concentration that produces a half-maximal response. As a reminder, the Emax is the greatest response seen or fitted, relative to the assay's reference. Regarding `COc1cc(OC2CCC(F)(F)CC2)c(F)cc1CNC(=O)[C@@H]1CCCN1` [Example 18, (2S)—N-[[4-(4,4-Difluorocyclohexoxy)-5-fluoro-2-methoxy-phenyl]methyl]-pyrrolidine-2-carboxamide], the CLint scaled at 0.5 μM in series [1] is < 500 mL/min/kg. At 5-HT2C receptor, the EC50 fell in the range of 5 to 15 nM and the Emax is > 70%.
Regarding `COc1cc(OCCC(F)(F)C(F)(F)F)c(F)cc1CNC(=O)[C@@H]1CCCN1` [Example 24, (2S)—N-[[5-Fluoro-2-methoxy-4-(3,3,4,4,4-pentafluorobutoxy)phenyl]methyl]-pyrrolidine-2-carboxamide], in series [1], the CLint scaled at 0.5 μM was < 500 mL/min/kg. For the same compound, at 5-HT2C receptor, the EC50 was in the range of 5 to 15 nM and the Emax was > 70%.
For the compound `COc1cc(OCc2cccc(F)c2)c(F)cc1CNC(=O)[C@@H]1CCCN1` [Example 1, (2S)—N-[[5-Fluoro-4-[(3-fluorophenyl)methoxy]-2-methoxy-phenyl]methyl]-pyrrolidine-2-carboxamide], the CLint scaled at 0.5 μM in series [1] was 1330 to 4170 mL/min/kg. At 5-HT2C receptor, the EC50 is < 5 nM and the Emax was > 70%.
Take `COc1cc(OCC2(C(F)(F)F)CC2)c(F)cc1CNC(=O)[C@@H]1CCCN1` [Example 27, (2S)—N-[[5-Fluoro-2-methoxy-4-[[1-(trifluoromethyl)cyclopropyl]methoxy]phenyl]-methyl]pyrrolidine-2-carboxamide]: the CLint scaled at 0.5 μM in series [1] is 500 to 1330 mL/min/kg. Besides, on 5-HT2C receptor, the EC50 was 5 to 15 nM and the Emax was > 70%.
The corresponding values for `COc1cc(O[C@H]2CC[C@@H](F)CC2)c(F)cc1CNC(=O)[C@@H]1CCCN1` [Example 16, (S)—N-(5-Fluoro-4-((cis-4-fluorocyclohexyl)oxy)-2-methoxybenzyl)pyrrolidine-2-carboxamide] are < 500 mL/min/kg, 15 to 30 nM and > 70%.
For `COc1cc(OCc2cc(F)cc(F)c2F)c(F)cc1CNC(=O)[C@@H]1CCCN1` [Example 2, (2S)—N-[[5-Fluoro-2-methoxy-4-[(2,3,5-trifluorophenyl)methoxy]phenyl]methyl]-pyrrolidine-2-carboxamide] the same measures were 1330 to 4170 mL/min/kg, 5 to 15 nM and > 70%.
Take `COc1cc(OC(C)C(F)(F)C(F)F)c(F)cc1CNC(=O)[C@@H]1CCCN1` (stereo partly drawn) [Example 22, (2S)—N-[[5-Fluoro-2-methoxy-4-(2,2,3,3-tetrafluoro-1-methyl-propoxy)phenyl]-methyl]pyrrolidine-2-carboxamide]: the CLint scaled at 0.5 μM in series [1] is < 500 mL/min/kg. Besides, at 5-HT2C receptor, the EC50 lay within 5 to 15 nM and the Emax was > 70%.
For `COc1cc(OCCc2ccc(F)cc2)c(F)cc1CNC(=O)[C@@H]1CCCN1` [Example 11, (2S)—N-[[5-Fluoro-4-[2-(4-fluorophenyl)ethoxy]-2-methoxy-phenyl]methyl]-pyrrolidine-2-carboxamide], the CLint scaled at 0.5 μM in series [1] was in the range of 1330 to 4170 mL/min/kg. Besides, at 5-HT2C receptor, the EC50 fell in the range of 5 to 15 nM and the Emax was > 70%.
With `COc1cc(O[C@H]2CC[C@H](C(F)(F)F)CC2)c(F)cc1CNC(=O)[C@@H]1CCCN1` [Example 33, (S)—N-(5-Fluoro-4-((trans-4-trifluoromethyl-cyclohexyl)oxy)-2-methoxybenzyl)-pyrrolidine-2-carboxamide], the CLint scaled at 0.5 μM in series [1] is < 500 mL/min/kg. Moreover, on 5-HT2C receptor, the concentration for a half-maximal effect (EC50) is < 5 nM and the Emax is > 70%.
The corresponding values for `COc1cc(OCC2CC(F)(F)C2(F)F)c(F)cc1CNC(=O)[C@@H]1CCCN1` (stereo partly drawn) [Example 30, (2S)—N-[[5-Fluoro-2-methoxy-4-[(2,2,3,3-tetrafluorocyclobutyl)methoxy]phenyl]-methyl]pyrrolidine-2-carboxamide] are < 500 mL/min/kg, < 5 nM and > 70%.
On to `COc1cc(OCC(F)(F)C(F)F)c(F)cc1CNC(=O)[C@@H]1CCCN1C` [Example 36, (2S)—N-[[5-Fluoro-2-methoxy-4-(2,2,3,3-tetrafluoropropoxy)phenyl]methyl]-1-methyl-pyrrolidine-2-carboxamide], for which the CLint scaled at 0.5 μM in series [1] fell in the range of 500 to 1330 mL/min/kg. For the same compound, at 5-HT2C receptor, the EC50 lay within 15 to 30 nM and the Emax is > 70%.
The corresponding values for `COc1cc(OC2CCC(CF)CC2)c(F)cc1CNC(=O)[C@@H]1CCCN1` (stereo partly drawn) [Example 43, (2S)—N-[[5-Fluoro-4-[4-(fluoromethyl)cyclohexoxy]-2-methoxy-phenyl]methyl]-pyrrolidine-2-carboxamide] are < 500 mL/min/kg, 15 to 30 nM and > 70%.
Take `COc1cc(OCC(F)(F)C(F)C(F)(F)F)c(F)cc1CNC(=O)[C@@H]1CCCN1` (stereo partly drawn) [Example 21, (2S)—N-[[5-Fluoro-4-(2,2,3,4,4,4-hexafluorobutoxy)-2-methoxy-phenyl]methyl]-pyrrolidine-2-carboxamide]: the CLint scaled at 0.5 μM in series [1] was < 500 mL/min/kg. In addition, on 5-HT2C receptor, the EC50 is < 5 nM and the maximum response (Emax) was > 70%.
